Experimental data published in paper PMC10718521, “Complexity of αvβ6-integrin targeting RGD peptide trimers: emergence of non-specific binding by synergistic interaction” (RSC Medicinal Chemistry, 2023).
Read-outs that look alike come from different tables or passages of the source. Where a SMILES comes first, the peptide text is derived from it. [ ]: non-standard residue; d: D form. The star is where a group is joined. NMeK = CN[C@@H](CCCCN)C(=O)O; Pent4ynoyl = C#CCCC(=O)*

What was measured:
α5β1-integrin [1] = target: T1, α5β1-integrin (Homo sapiens, UniProt P05556+P08648); assay: ELISA on immobilized integrins, α5β1; type: binding; conditions: read-out: IC50 (95% confidence interval) α5β1
T1 sequence (P08648 42-995 limits assumed): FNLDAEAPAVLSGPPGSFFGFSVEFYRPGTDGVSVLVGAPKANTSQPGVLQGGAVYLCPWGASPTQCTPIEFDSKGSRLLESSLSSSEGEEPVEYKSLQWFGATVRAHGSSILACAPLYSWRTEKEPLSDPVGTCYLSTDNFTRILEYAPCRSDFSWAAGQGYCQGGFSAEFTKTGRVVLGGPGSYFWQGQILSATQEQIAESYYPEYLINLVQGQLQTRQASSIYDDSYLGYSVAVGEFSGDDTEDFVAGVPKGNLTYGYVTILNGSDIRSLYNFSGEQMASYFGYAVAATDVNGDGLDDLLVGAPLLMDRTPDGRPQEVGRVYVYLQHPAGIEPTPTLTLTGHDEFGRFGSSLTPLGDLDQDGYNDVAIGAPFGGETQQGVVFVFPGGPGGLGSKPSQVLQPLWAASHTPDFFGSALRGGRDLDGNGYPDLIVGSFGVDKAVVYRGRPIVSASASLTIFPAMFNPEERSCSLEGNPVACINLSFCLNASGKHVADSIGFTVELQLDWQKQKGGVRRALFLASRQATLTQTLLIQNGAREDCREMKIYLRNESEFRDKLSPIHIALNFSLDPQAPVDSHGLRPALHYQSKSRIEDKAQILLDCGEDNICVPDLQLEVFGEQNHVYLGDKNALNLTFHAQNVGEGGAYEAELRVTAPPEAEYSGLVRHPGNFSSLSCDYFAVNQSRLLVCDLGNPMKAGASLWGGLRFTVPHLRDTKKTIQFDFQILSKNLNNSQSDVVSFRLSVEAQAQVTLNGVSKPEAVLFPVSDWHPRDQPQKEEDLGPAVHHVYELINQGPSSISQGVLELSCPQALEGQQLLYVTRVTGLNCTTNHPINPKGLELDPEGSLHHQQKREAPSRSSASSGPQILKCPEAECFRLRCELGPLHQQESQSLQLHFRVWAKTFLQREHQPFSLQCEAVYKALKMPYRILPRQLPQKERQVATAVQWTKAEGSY
T1 sequence (P05556 21-728 limits assumed): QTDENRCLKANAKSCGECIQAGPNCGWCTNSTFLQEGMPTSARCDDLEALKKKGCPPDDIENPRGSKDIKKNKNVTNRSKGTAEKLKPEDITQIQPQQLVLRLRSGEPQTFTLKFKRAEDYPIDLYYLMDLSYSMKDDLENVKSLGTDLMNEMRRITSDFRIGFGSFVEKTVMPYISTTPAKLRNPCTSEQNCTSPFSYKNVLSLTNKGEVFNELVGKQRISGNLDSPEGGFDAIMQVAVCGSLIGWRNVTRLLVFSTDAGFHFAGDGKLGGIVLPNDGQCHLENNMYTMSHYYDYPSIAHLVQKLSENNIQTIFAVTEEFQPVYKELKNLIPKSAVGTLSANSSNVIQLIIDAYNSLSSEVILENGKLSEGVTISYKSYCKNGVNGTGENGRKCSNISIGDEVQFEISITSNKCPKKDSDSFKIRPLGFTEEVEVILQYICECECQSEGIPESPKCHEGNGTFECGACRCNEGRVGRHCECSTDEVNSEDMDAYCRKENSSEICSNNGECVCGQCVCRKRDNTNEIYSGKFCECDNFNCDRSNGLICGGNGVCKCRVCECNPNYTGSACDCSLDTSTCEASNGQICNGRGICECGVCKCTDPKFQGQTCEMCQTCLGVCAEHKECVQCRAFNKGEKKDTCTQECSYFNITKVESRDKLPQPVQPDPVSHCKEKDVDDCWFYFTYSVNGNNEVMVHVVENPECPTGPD
Description: (§1) The integrin affinities of the monomers were determined using an established ELISA protocol,[36] and expressed as 50% inhibitory concentrations (IC50, Table 1).
(§2) Unless otherwise noted, the materials and the instrumentation used (analytical and preparative HPLC, ESI-MS, gamma counter, centrifuge), and the experimental procedures (^68Ga radiolabeling and radio-TLC for quality control, determination of log D7.4, cultivation of H2009 human lung adenocarcinoma cells, generation of tumor xenografts in CB17 SCID mice, small-animal PET, and biodistribution) were described before.[19] All animal experiments have been carried out according to applicable law and institutional guidelines of Technical University of Munich, and were approved by the responsible local authority (Regierung von Oberbayern). The H2009 cells were regularly authenticated and tested for mycoplasma contamination. The affinities of the pentynoic amide functionalized peptides were determined employing a well-established ELISA protocol on immobilized integrins.[36] TRAP-triazide,[38]FF (previously termed AvB6),[32] and YY (also referred to as Tyr2-alkyne)[33] were synthesized as described previously. […]

αvβ3-integrin [2] = target: T2, αvβ3-integrin (Homo sapiens, UniProt P05106+P06756); assay: ELISA on immobilized integrins, αvβ3; type: binding; conditions: read-out: IC50 (95% confidence interval) αvβ3
T2 sequence (P06756 31-1048): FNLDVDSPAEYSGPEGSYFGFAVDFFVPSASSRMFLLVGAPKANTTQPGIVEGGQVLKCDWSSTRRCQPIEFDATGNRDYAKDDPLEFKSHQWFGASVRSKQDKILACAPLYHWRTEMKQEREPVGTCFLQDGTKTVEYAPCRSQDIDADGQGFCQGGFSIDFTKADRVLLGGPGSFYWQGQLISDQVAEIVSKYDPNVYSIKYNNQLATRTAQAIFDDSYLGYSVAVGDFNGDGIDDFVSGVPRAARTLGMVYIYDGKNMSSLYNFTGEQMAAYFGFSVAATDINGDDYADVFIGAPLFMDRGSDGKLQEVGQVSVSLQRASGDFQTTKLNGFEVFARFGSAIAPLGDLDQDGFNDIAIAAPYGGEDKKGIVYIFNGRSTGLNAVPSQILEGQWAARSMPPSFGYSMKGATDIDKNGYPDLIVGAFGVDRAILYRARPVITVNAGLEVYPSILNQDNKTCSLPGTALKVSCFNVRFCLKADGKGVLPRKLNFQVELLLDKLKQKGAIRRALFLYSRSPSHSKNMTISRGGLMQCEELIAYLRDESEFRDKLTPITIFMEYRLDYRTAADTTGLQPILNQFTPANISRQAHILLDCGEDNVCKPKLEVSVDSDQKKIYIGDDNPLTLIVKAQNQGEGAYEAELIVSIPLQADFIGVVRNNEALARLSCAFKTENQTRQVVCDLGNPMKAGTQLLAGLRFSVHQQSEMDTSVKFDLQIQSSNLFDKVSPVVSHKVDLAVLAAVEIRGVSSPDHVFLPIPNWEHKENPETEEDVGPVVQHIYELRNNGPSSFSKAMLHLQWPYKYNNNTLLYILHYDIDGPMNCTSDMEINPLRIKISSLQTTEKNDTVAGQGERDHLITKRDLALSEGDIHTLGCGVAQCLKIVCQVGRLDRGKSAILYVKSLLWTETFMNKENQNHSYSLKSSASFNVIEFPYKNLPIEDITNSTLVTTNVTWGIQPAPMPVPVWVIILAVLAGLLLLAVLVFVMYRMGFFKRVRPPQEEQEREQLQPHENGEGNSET
T2 sequence (P05106 27-788): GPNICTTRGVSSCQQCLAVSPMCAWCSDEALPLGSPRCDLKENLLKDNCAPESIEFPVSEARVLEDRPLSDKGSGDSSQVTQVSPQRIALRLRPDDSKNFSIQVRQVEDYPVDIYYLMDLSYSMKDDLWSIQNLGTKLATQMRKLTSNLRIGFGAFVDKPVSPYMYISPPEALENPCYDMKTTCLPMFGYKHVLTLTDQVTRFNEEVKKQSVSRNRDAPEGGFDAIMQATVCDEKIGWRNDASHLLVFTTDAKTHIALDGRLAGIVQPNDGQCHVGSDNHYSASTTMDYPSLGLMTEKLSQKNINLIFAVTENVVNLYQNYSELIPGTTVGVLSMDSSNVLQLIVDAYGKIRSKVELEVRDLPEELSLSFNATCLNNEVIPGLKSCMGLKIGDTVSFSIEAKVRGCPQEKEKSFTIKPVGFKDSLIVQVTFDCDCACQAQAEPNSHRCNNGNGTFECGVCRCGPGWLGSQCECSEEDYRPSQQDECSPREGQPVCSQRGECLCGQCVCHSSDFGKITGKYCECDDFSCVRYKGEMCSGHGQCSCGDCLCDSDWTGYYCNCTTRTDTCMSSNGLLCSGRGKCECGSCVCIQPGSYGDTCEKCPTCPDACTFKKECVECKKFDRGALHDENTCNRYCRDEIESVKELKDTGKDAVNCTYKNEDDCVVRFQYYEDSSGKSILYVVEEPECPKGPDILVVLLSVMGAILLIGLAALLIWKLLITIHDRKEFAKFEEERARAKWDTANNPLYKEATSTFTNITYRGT
Description: as §1, §2

αvβ6-integrin [3] = target: T3, αvβ6-integrin (Homo sapiens, UniProt P06756+P18564); assay: ELISA on immobilized integrins, αvβ6; type: binding; conditions: for IC50: ELISA, read-out: IC50 (95% confidence interval) αvβ6; for αvβ6-selectivity over α5β1 / αvβ6-selectivity over αvβ3 / αvβ6-selectivity over αvβ8: IC50-based
Description: as §1
Unless otherwise noted, the materials and the instrumentation used (analytical and preparative HPLC, ESI-MS, gamma counter, centrifuge), and the experimental procedures (^68Ga radiolabeling and radio-TLC for quality control, determination of log D7.4, cultivation of H2009 human lung adenocarcinoma cells, generation of tumor xenografts in CB17 SCID mice, small-animal PET, and biodistribution) were described before.[19] All animal experiments have been carried out according to applicable law and institutional guidelines of Technical University of Munich, and were approved by the responsible local authority (Regierung von Oberbayern). The H2009 cells were regularly authenticated and tested for mycoplasma contamination. The affinities of the pentynoic amide functionalized peptides were determined employing a well-established ELISA protocol on immobilized integrins.[36] TRAP-triazide,[38]FF (previously termed AvB6),[32] and YY (also referred to as Tyr2-alkyne)[33] were synthesized as described previously. RP-HPLC for assessment of compound polarity was done on a 150 × 4.6 mm ReproSil-Pur 120 C18-AQ 5 μm column, with a flow of 0.75 mL min^−1 and a gradient of 10–50% MeCN in water, both containing 0.1% trifluoroacetic acid, within 15 min. The required ^natGa-complexes of the peptide trimers were synthesized by reaction with equimolar amounts of aq. GaCl3 as described.[19]

αvβ8-integrin [4] = target: T4, αvβ8-integrin (Homo sapiens, UniProt P06756+P26012); assay: ELISA on immobilized integrins, αvβ8; type: binding; conditions: read-out: IC50 (95% confidence interval) αvβ8
T4 sequence (P06756 31-992 limits assumed): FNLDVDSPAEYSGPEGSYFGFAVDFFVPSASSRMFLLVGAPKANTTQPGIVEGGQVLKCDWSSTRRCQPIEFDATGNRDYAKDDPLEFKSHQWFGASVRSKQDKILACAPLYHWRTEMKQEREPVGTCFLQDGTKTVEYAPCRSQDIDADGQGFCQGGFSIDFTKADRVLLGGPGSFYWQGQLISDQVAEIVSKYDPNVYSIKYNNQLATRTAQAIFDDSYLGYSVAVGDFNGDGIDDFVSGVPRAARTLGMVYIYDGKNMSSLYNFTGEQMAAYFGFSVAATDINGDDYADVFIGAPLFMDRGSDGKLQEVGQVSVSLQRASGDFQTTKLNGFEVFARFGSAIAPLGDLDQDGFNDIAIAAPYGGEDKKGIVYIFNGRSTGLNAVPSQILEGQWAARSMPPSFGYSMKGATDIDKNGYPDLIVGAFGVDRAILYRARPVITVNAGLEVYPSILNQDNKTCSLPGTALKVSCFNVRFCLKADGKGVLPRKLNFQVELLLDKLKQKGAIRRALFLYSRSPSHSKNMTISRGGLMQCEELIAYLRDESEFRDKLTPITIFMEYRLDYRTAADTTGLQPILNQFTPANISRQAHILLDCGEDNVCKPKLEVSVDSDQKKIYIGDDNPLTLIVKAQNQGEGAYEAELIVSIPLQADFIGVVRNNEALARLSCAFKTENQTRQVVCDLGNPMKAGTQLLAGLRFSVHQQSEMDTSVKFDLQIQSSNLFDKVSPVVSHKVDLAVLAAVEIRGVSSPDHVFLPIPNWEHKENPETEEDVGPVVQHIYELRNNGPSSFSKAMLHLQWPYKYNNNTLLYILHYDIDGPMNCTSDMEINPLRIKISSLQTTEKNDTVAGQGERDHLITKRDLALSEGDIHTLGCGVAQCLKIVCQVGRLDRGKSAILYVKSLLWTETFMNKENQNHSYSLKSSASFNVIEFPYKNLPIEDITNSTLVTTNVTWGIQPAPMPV
T4 sequence (P26012 43-684 limits assumed): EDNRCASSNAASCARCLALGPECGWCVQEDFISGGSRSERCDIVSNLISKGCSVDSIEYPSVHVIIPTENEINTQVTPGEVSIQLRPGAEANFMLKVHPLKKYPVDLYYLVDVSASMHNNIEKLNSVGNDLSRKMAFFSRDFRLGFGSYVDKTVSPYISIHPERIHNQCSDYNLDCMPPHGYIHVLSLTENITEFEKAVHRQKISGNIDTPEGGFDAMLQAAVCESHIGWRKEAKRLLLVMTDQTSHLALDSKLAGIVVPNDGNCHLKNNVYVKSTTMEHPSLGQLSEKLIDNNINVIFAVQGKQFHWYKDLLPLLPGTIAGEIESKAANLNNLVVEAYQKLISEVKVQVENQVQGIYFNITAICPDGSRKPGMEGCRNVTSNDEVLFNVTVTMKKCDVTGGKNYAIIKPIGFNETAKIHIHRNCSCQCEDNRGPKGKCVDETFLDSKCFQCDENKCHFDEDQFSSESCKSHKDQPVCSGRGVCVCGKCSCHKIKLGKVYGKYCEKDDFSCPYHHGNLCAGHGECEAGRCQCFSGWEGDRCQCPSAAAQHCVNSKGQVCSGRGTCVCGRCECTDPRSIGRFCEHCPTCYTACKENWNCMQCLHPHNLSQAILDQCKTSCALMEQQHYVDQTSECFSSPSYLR
Description: as §1, §2

H2009 bearing SCID mice = conditions: mouse, in vivo
Description: Fig. 3 Positron emission tomography (PET) of severe combined immunodeficient (SCID) mice bearing subcutaneous H2009 (human lung adenocarcinoma) xenografts on the right shoulder. Dynamic scans for determination of biokinetics (a and b) were recorded in list mode and reconstructed in multiple frames with increasing time spans. Static images (c and d) were recorded over 20 min, 75 min after tracer administration, and reconstructed as single frames using the OSEM3D algorithm. […]
Unless otherwise noted, the materials and the instrumentation used (analytical and preparative HPLC, ESI-MS, gamma counter, centrifuge), and the experimental procedures (^68Ga radiolabeling and radio-TLC for quality control, determination of log D7.4, cultivation of H2009 human lung adenocarcinoma cells, generation of tumor xenografts in CB17 SCID mice, small-animal PET, and biodistribution) were described before.[19] […] The affinities of the pentynoic amide functionalized peptides were determined employing a well-established ELISA protocol on immobilized integrins.[36] […]

α5β1-integrin [5] = target: T1, α5β1-integrin; set-up: method as in PMID 34559266; conditions: ELISA; read-out: IC50 (95% confidence interval) α5β1; cited from earlier work
αvβ6-integrin [6] = target: T3, αvβ6-integrin; set-up: method as in PMID 34559266; conditions: ELISA; read-out: IC50 (95% confidence interval) αvβ6; cited from earlier work
αvβ3-integrin [7] = target: T2, αvβ3-integrin; set-up: method as in PMID 34559266; conditions: ELISA; read-out: IC50 (95% confidence interval) αvβ3; cited from earlier work
αvβ8-integrin [8] = target: T4, αvβ8-integrin; set-up: method as in PMID 34559266; conditions: ELISA; read-out: IC50 (95% confidence interval) αvβ8; cited from earlier work

Molecule	IC50 (α5β1-integrin [1]) [nM]	IC50 (αvβ3-integrin [2]) [nM]	IC50 (αvβ6-integrin [3]) [nM]	αvβ6-selectivity over α5β1 (αvβ6-integrin [3])	αvβ6-selectivity over αvβ3 (αvβ6-integrin [3])	αvβ6-selectivity over αvβ8 (αvβ6-integrin [3])	IC50 (αvβ8-integrin [4]) [nM]	Kinetic data Blood (H2009 bearing SCID mice)	IC50 (α5β1-integrin [5]) [nM]	IC50 (αvβ6-integrin [6]) [nM]	IC50 (αvβ3-integrin [7]) [nM]	IC50 (αvβ8-integrin [8]) [nM]
C#CCCC(=O)NCCCC[C@H]1C(=O)N[C@@H](Cc2ccccc2)C(=O)N[C@@H](CCCNC(=N)N)C(=O)NCC(=O)N[C@@H](CC(=O)O)C(=O)N[C@@H](CC(C)C)C(=O)N[C@@H](C)C(=O)N[C@@H](Cc2ccc(O)cc2)C(=O)N2CCC[C@@H]2C(=O)N1C [FY] (cyclo(FRGDLAY[dP][NMeK](Pent4ynoyl)))	177	732	2.8	63	261	13.2	37					
CC(C)C[C@@H]1NC(=O)[C@H](CC(=O)O)NC(=O)CNC(=O)[C@H](CCCNC(=N)N)NC(=O)[C@H](Cc2ccc(O)cc2)NC(=O)[C@H](CCCCNC(=O)CCc2cn(CCCNC(=O)CCP(=O)(O)CN3CCN(CP(=O)(O)CCC(=O)NCCCn4cc(CCC(=O)NCCCC[C@H]5C(=O)N[C@@H](Cc6ccc(O)cc6)C(=O)N[C@@H](CCCNC(=N)N)C(=O)NCC(=O)N[C@@H](CC(=O)O)C(=O)N[C@@H](CC(C)C)C(=O)N[C@@H](C)C(=O)N[C@@H](Cc6ccc(O)cc6)C(=O)N6CCC[C@@H]6C(=O)N5C)nn4)CCN(CP(=O)(O)CCC(=O)NCCCn4cc(CCC(=O)NCCCC[C@H]5C(=O)N[C@@H](Cc6ccc(O)cc6)C(=O)N[C@@H](CCCNC(=N)N)C(=O)NCC(=O)N[C@@H](CC(=O)O)C(=O)N[C@@H](CC(C)C)C(=O)N[C@@H](C)C(=O)N[C@@H](Cc6ccc(O)cc6)C(=O)N6CCC[C@@H]6C(=O)N5C)nn4)CC3)nn2)N(C)C(=O)[C@H]2CCCN2C(=O)[C@H](Cc2ccc(O)cc2)NC(=O)[C@H](C)NC1=O [Y6]								13.14 ± 1.99				
C#CCCC(=O)NCCCC[C@H]1C(=O)N[C@@H](Cc2ccc(O)cc2)C(=O)N[C@@H](CCCNC(=N)N)C(=O)NCC(=O)N[C@@H](CC(=O)O)C(=O)N[C@@H](CC(C)C)C(=O)N[C@@H](C)C(=O)N[C@@H](Cc2ccccc2)C(=O)N2CCC[C@@H]2C(=O)N1C [YF] (cyclo(YRGDLAF[dP][NMeK](Pent4ynoyl)))	114	630	3.3	35	190	6.9	23					
FF: cyclo[FRGDLAFp(NMe)K] bearing 4-pentynoic amide on the Lys side chain; alkyne-functionalized peptide monomer									226	0.17	424	32
YY: cyclo[YRGDLAYp(NMe)K] bearing 4-pentynoic amide on the Lys side chain; alkyne-functionalized peptide monomer (cyclo(YRGDLAY[dP][NMeK](Pent4ynoyl)); SMILES C#CCCC(=O)NCCCC[C@H]1C(=O)N[C@@H](Cc2ccc(O)cc2)C(=O)N[C@@H](CCCNC(=N)N)C(=O)NCC(=O)N[C@@H](CC(=O)O)C(=O)N[C@@H](CC(C)C)C(=O)N[C@@H](C)C(=O)N[C@@H](Cc2ccc(O)cc2)C(=O)N2CCC[C@@H]2C(=O)N1C)									150	0.84	219	26
